Tests used:
[1] = molecular target: T1, CitApc (C12A/R93A CitA1-309) (Geobacillus thermodenitrificans, UniProt A4IPE6, C12A/R93A); assay: 1H-detected MAS solid-state NMR chemical shifts; type: binding; conditions: 5 mM sodium citrate, 20 mM sodium phosphate pH 6.5; DMPC/DMPA liposomes; 293 K
T1 construct: gene GTNG_1840; residues 1-309 (PASp, TM helices, PASc; no kinase core); E. coli C43(DE3), Ni-NTA purified; reconstituted in DMPC/DMPA liposomes; dimer

full length Gt CitA = molecular target: T2, full length Gt CitA (Geobacillus thermodenitrificans, UniProt A4IPE6, C12A/R93A/N308C, form not given); assay: […] NMR ATP hydrolysis assay in DMPC liposomes; type: biochemical; conditions: 5 mM sodium citrate; 6 mM ATP, 10 mM MgCl2, pH 6.5, 37 C; untagged and CH2COCF3-tagged at N308C; activator
T2 construct: gene GTNG_1840; full length; vector pET16b, Ni-NTA purified, reconstituted in DMPC liposomes (C12A/R93A/N308C); pMW1652 in E. coli IMW549 for reporter assay
T2 sequence (A4IPE6 entry or part of it C12A/R93A/N308C, form open): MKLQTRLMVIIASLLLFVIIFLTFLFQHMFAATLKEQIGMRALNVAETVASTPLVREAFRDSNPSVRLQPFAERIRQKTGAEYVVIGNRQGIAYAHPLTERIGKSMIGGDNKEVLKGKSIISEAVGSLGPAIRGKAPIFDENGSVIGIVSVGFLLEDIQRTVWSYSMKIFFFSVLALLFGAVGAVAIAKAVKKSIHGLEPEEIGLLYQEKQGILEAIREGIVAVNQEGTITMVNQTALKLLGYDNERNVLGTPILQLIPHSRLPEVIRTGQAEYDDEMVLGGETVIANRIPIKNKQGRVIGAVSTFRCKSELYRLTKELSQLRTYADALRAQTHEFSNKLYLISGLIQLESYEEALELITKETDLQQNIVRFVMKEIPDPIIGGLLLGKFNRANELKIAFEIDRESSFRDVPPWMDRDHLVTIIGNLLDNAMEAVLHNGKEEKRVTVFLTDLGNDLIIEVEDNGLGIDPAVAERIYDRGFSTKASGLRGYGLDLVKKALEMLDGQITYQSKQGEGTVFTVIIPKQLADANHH

[2] = molecular target: T3, CitApc (C12A/R93A CitA1-309) (Geobacillus thermodenitrificans, UniProt A4IPE6, C12A/R93A/N308C); assay: […] CODEX with DNP, inter-dimer distance change; type: binding; conditions: CH2COCF3-tagged at N308C; liposomes; 90 K
T3 construct: gene GTNG_1840; residues 1-309 (PASp, TM helices, PASc; no kinase core); E. coli C43(DE3), Ni-NTA purified; reconstituted in DMPC/DMPA liposomes; dimer
T3 sequence (A4IPE6 entry or part of it C12A/R93A/N308C): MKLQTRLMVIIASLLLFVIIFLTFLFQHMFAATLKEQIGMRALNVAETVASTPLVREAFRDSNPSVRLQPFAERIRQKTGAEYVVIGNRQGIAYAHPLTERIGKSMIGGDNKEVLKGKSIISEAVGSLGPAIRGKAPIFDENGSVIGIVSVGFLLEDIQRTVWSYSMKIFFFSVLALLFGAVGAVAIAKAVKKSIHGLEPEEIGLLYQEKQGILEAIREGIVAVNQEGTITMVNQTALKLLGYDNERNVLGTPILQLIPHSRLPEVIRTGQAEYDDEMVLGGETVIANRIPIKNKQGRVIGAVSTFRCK

Gt CitA PASp domain (WT) = molecular target: T4, Gt CitA PASp domain (WT) (Geobacillus thermodenitrificans, UniProt A4IPE6); assay: X-ray crystallography, molecular replacement; type: binding; conditions: 1 mM sodium citrate added; crystallised from 1 M tri-sodium citrate, 0.1 M imidazole pH 9.0
T4 construct: gene GTNG_1840; periplasmic (extracytoplasmic) PAS/PDC sensor domain; E. coli BL21(DE3); N-terminal His-tag removed with TEV protease
T4 sequence (A4IPE6 entry or part of it): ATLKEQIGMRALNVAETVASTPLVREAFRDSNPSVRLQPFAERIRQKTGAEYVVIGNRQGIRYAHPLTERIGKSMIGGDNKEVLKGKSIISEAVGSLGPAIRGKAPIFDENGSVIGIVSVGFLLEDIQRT

[3] = molecular target: N288D mutant of the cytosolic PAS domain (PASc) of Geobacillus thermodenitrificans CitA (Geobacillus thermodenitrificans); assay: SEC; size exclusion column, down to a concentration of 1 μM (Supplementary Fig. 8)
[4] = molecular target: wild-type cytosolic PAS domain (PASc) of Geobacillus thermodenitrificans CitA (Geobacillus thermodenitrificans); assay: as above

T1 sequence (A4IPE6 entry or part of it C12A/R93A): as the sequence (A4IPE6 entry or part of it C12A/R93A/N308C) above, with C308N counted along it

## O=C(O)CC(O)(CC(=O)O)C(=O)O [citrate]
[1]
  1H-detected MAS solid-state NMR chemical shifts: also indicate changes in secondary structure upon addition of citrate
Full length Gt CitA
  31P NMR ATP hydrolysis assay in DMPC liposomes: Upon citrate binding, a threefold increase in CitA’s ATP hydrolysis rate was observed
[2]
  19F CODEX with DNP, inter-dimer distance change: A decay in the CODEX signal to half of the reference signal was observed when citrate was bound
Gt CitA PASp domain (WT)
  X-ray crystallography, molecular replacement: Superposition of the citrate-bound Gt PASp domain structure (PDB: 8BGB

## N288D mutant of the cytosolic PAS domain (PASc) of Geobacillus thermodenitrificans CitA (domain or fragment)
[3]
  stoichiometry N: 2

## wild-type cytosolic PAS domain (PASc) of Geobacillus thermodenitrificans CitA (domain or fragment)
[4]
  stoichiometry N: 2

— publication PMC11754779, “Mechanism of sensor kinase CitA transmembrane signaling” (Nature Communications, 2025)
